The values below come from article PMC7571127, “Daurichromenic Acid from the Chinese Traditional Medicinal Plant Rhododendron dauricum Inhibits Sphingomyelin Synthase and Aβ Aggregation” (Molecules, 2020).

In one assay the target is T1, SMS2 (Homo sapiens, UniProt Q8NHU3).
T1 construct: expressed in transfected cells; host or cells: ZS/SMS2 cells (sonicated lysate)
T1 sequence (Q8NHU3 1-365): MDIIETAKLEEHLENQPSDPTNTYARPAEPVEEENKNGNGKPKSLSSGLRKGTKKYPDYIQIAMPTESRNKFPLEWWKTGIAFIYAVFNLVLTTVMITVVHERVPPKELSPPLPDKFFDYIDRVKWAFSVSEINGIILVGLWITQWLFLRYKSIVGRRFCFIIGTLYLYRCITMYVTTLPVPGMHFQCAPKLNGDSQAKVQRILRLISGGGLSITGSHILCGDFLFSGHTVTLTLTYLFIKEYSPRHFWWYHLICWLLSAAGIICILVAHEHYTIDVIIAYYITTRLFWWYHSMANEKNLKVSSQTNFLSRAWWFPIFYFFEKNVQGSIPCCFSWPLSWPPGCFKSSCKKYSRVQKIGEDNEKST
As to the kind of experiment: SMS assay, cell lysate with fluorescent substrate C6-NBD-Cer (SMS2). It counts as biochemical. Here is the method:
(§1) The ability of DCA and its derivatives to inhibit the SMS isozymes SMS1 and SMS2 was evaluated using a cell lysate assay and the fluorescent substrate C6-NBD (4-nitrobenzo-2-oxa-1,3-diazole)-Cer. […] Thus, the carboxylic acid group of DCAs are essential moieties for their inhibition of SMSs. However, the SMS has not been succeeded in its crystallization. Therefore, a direct comparison with the previously isolated SMS inhibitor ginkgolic acid has been examined. […] Further, a previous report concerning the mode of action for Aβ aggregation inhibition for small molecules gave the insight that the crucial role of a hydrophobic-side hydrocarbon chain and an aromatic ring as well as its two hydrophilic functions causes significant interaction with the amyloid.
(§2) ZS/SMS1 and ZS/SMS2 cells (protein concentration 0.1 µg/µL) were diluted in 20 mM Tris-buffer (pH 7.5) and sonicated. A 1 µL aliquot of each compound at the desired concentration was added to 100 µL aliquots of the cell lysates and the solutions were incubated at 37 °C for 30 min. A 1 µL aliquot of C6-NBD-ceramide was added to each solution and the solutions were incubated for 3 h at 37 °C. The reactions were stopped by addition of 400 µL of MeOH/CHCl3 [1/2 (v/v)], and the mixtures were shaken and centrifuged at 1500 rpm for 5 min. The formation of C6-NBD-sphingomyelin was quantified by HPLC determination of its peak area. Inhibitory activity was quantified by a reverse-phase HPLC assay using a JACSO HPLC system, equipped with a PU-2089 Plus and FP-2020 Plus set at λex = 470 nm and λem = 530 nm. A 50 × 4.6 YMC-Pack Diol-120-NP column (5-µm particle size) was used with the mobile phase (IPA/hexane/water) at a flow rate of 1.0 mL/min
(§3) Figure 1 Inhibition of SMS1 and SMS2 activities by (a) DCA (1), (b) derivative (4), (c) derivative (6) and (d) derivative (7). IC50 values were measured using a cell lysate assay. SMS-expressing cell lysates and compounds were incubated for 3 h at 37 °C, and the extracted fluorescent lipids were directly analyzed by HPLC. Each point represents the mean ± SD of triplicate assays.

Assay [1] concerns the target T2, Aβ42 aggregation (Homo sapiens, UniProt P05067).
T2 construct: 30 nM QD-labeled Aβ40 (QDAβ), and 30 μM Aβ42 in PBS
As to the kind of experiment: Aβ aggregation inhibition, microtiter-scale high-throughput screening (MSHTS) assay. In kind it is biochemical. As to the method: Alzheimer’s disease (AD) is a multifactorial disease, which is believed to be caused by complex interactions among several contributing patho-mechanisms. The ability of DCA and its derivatives, along with other natural compounds, ginkgolic acids (8, 9) (Figure 2) and malabaicone A–C (10, 11 and 12), to inhibit Aβ42 aggregation was evaluated by microtiter-scale high-throughput screening (MSHTS) assays. EC50 values were measured from inhibition curves, in which the percent SDs of fluorescence intensities were plotted against the concentration of each compound (Figure 3). Here, 30 nM quantum dot amyloid beta (QDAβ) and 30 µM of Aβ were incubated with different concentrations to evaluate the EC50 of all derivatives. […] The inhibitory activities of the other cyclized DCAs and malabaricones were lower (Figure S2).
The aggregation inhibitory activities of plant extracts, fractions, DCA, DCA derivatives, and naturally occurring SMS inhibitors (compounds 8, 9, and 10) were measured using a modified MSHTS system. Various concentrations of each were incubated with 30 nM QD-labeled Aβ40 (QDAβ), and 30 μM Aβ42 in PBS containing 5% EtOH and 3% DMSO at 37 °C for 24 h in 1536-well plates (782096, Greiner) (Kremsmünster, Austria). The center of each well as viewed with an inverted fluorescence microscope (TE2000, Nikon)) (Tokyo, Japan) equipped with a color CCD camera (DP72, Olympus) (Tokyo, Japan), and the central region of each well were measured with ImageJ software Ver 1.53b (NIH) to determine the standard deviations (SD) of fluorescence intensities of 40,000 pixels (200 × 200 pixels: 320 × 320 μm). The SD values, which were approximately proportional to the amount of aggregates, were plotted against the concentrations of the putative inhibitors to generate inhibition curves, and the EC50 values were determined.
Figure 3 (A) Inhibition of Aβ42 aggregation by DCA, its derivatives, and natural sphingomyelin synthase inhibitors, as shown by incubation of 30 nM QDAβ and 30 µM Aβ with various concentrations of these compounds. (B) Estimation of EC50 values from inhibition curves, in which the percent SDs of fluorescence intensities were plotted against the concentrations of these compounds.

Another assay addresses T3, SMS1 (Homo sapiens, UniProt Q86VZ5).
T3 construct: expressed in transfected cells; host or cells: ZS/SMS1 cells (sonicated lysate)
T3 sequence (Q86VZ5 1-413): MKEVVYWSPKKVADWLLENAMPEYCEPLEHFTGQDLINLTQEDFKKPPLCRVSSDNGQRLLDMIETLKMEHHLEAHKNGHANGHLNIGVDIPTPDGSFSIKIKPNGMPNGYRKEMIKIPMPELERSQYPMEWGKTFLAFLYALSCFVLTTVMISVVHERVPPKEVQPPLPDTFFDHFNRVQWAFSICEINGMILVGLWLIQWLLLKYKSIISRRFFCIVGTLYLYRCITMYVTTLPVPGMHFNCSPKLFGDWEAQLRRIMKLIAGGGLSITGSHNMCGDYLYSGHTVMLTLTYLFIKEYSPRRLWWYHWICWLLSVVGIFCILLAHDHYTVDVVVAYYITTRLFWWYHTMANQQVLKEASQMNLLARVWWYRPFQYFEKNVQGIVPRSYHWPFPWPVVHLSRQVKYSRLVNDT
As to the kind of experiment: SMS assay, cell lysate with fluorescent substrate C6-NBD-Cer (SMS1). In kind it is biochemical. As to the method:
as §1, §2, §3

In another assay the test system is sphingomyelin synthase. As to the kind of experiment: SMS activity, isozyme not specified (abstract value; fractions of Rhododendron dauricum extract). In kind it is biochemical. Particulars: isozyme not stated, read-out: IC50, inhibition of sphingomyelin synthase activity.
Assay [2] has as its target T2, Aβ42 aggregation. On the set-up: method as in PMID 23991168. Particulars: comparison value; read-out: EC50 of Aβ aggregation inhibition (MSHTS); cited from earlier work.
Where [3] appears, read: ZS/SMS2 cell lysate, C6-NBD-ceramide, 3 h at 37 °C, HPLC, read-out: SMS Assay (SMS2) IC50.
Where [4] appears, read: 30 nM QDAβ and 30 µM Aβ42, 37 °C, 24 h, read-out: MHSTS Assay EC50 (inhibition of Aβ42 aggregation).
The mark [5] stands for this setting: ZS/SMS1 cell lysate, C6-NBD-ceramide, 3 h at 37 °C, HPLC, read-out: SMS Assay (SMS1) IC50.
[6] abbreviates: ZS/SMS2 cell lysate, C6-NBD-ceramide, 3 h at 37 °C, HPLC.
Setting [7] is: ZS/SMS1 cell lysate, C6-NBD-ceramide, 3 h at 37 °C, HPLC.

Read-outs that look alike come from different tables or passages of the source.

T2 sequence (P05067 672-713 limits assumed): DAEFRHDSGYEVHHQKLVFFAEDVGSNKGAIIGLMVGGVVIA
Procedure for sphingomyelin synthase: The dried powder, weighing 81 g, was extracted three times with 400 mL methanol for 24 h each at room temperature. The methanol extracts were combined and concentrated under reduced pressure, yielding a black residue weighing 24.2 g. The residue was dissolved in 20% MeOH in water (500 mL) and partitioned three times with 200 mL hexane, three times with 200 mL Et2O, and three times with 200 mL EtOAc. The solvents were evaporated, and SMS activities were assessed in the hexane, Et2O, EtOAc, and water residues.
ZS/SMS1 and ZS/SMS2 cells (protein concentration 0.1 µg/µL) were diluted in 20 mM Tris-buffer (pH 7.5) and sonicated. A 1 µL aliquot of each compound at the desired concentration was added to 100 µL aliquots of the cell lysates and the solutions were incubated at 37 °C for 30 min. A 1 µL aliquot of C6-NBD-ceramide was added to each solution and the solutions were incubated for 3 h at 37 °C. The reactions were stopped by addition of 400 µL of MeOH/CHCl3 [1/2 (v/v)], and the mixtures were shaken and centrifuged at 1500 rpm for 5 min. The formation of C6-NBD-sphingomyelin was quantified by HPLC determination of its peak area. Inhibitory activity was quantified by a reverse-phase HPLC assay using a JACSO HPLC system, equipped with a PU-2089 Plus and FP-2020 Plus set at λex = 470 nm and λem = 530 nm. […]

On to `Cc1cc2c(c(O)c1C(=O)O)CC1[C@]3(C)CCCC(C)(C)[C@H]3CC[C@]1(C)O2` (single isomer, unassigned; (-)) [Compound 7, (−) Hongoquercin A], for which the IC50 – broadly, the concentration that gives 50% inhibition – was determined as 5 µM at SMS2 (setting [3]) and 4 µM at SMS1 (setting [5]). Further, the EC50 (in general, the concentration needed to bring the measured effect to its halfway point) at Aβ42 aggregation [1] (setting [4]) was 238 µM.
For `CC(C)=CCC/C(C)=C/CC[C@@]1(C)C=Cc2c(cc(C)c(C(=O)O)c2O)O1` [Compound 1, Daurichromenic acid], the IC50 against SMS2 came out at 4 µM; in the assay on sphingomyelin synthase, 4 µM; against SMS1, 7 µM. On Aβ42 aggregation [1], this compound came in with an EC50 of 57 µM.
With `COC(=O)c1c(C)cc2c(c1O)C=C[C@](C)(CC/C=C(\C)CCC=C(C)C)O2` [Compound 2, Methyl Ester of DCA], on SMS2 (setting [6]), the “SMS Assay (SMS2) IC50” value is “inactive”. In addition, the “SMS Assay (SMS1) IC50” value at SMS1 (setting [7]) was “inactive”.
For `COC(=O)c1c(C)cc2c(c1OC)C=C[C@](C)(CC/C=C(\C)CCC=C(C)C)O2` [Compound 3, Methyl(S,E)-2-(4,8-dimethylnona-3,7-dien-1-yl)-5-methoxy-2,7-dimethyl-2H-chromene-6 carboxylate], at SMS2 (setting [6]), the “SMS Assay (SMS2) IC50” value is “inactive”. At SMS1 (setting [7]), the “SMS Assay (SMS1) IC50” value is “inactive”.
With `COc1c2c(cc(C)c1C(=O)O)O[C@@](C)(CC/C=C(\C)CCC=C(C)C)C=C2` [Compound 4, (S,E)-2-(4,8-Dimethylnona-3,7-dien-1-yl)-5-methoxy-2,7-dimethyl-2H-chromene-6-carboxylic acid], the values for the IC50 on SMS2 (setting [3]) and at SMS1 (setting [5]) were 10 µM and 17 µM, respectively. In addition, the EC50 at Aβ42 aggregation [1] (setting [4]) came out at 74 µM.
As to `COC(=O)c1c(C)cc2c(c1O)C=C1[C@]3(C)CCCC(C)(C)[C@H]3CC[C@]1(C)O2` [Compound 5, (−)-(5R,8S,10R)-9,15-Didehydro hongoquercin A methyl ester], the “SMS Assay (SMS2) IC50” value at SMS2 (setting [6]) is “inactive”. Moreover, the “SMS Assay (SMS1) IC50” value at SMS1 (setting [7]) is “inactive”.
Take `Cc1cc2c(c(O)c1C(=O)O)C=C1[C@]3(C)CCCC(C)(C)[C@H]3CC[C@]1(C)O2` [Compound 6, (−)-(5R,8S,10R)-9,15-Didehydro hongoquercin A]: the values for the IC50 at SMS2 (setting [3]) and on SMS1 (setting [5]) were 7 µM and 9 µM, respectively.
As for `CCCCCC/C=C\CCCCCCCc1cccc(O)c1C(=O)O` [Compound 8, ginkgolic acid, reference compound], the IC50 at SMS2 (setting [3]) and on SMS1 (setting [5]) was 1.5 µM throughout. The EC50 at Aβ42 aggregation [1] (setting [4]) stood at 149 µM.
With `CCCCCCCCCCCCCCCc1cccc(O)c1C(=O)O` [Compound 9, ginkgolic acid, reference compound], the IC50 on SMS2 (setting [3]) and at SMS1 (setting [5]) was 2 µM throughout. The EC50 on Aβ42 aggregation [1] (setting [4]) stood at 296 µM.
As to `O=C(/C=C/c1ccc(O)c(O)c1)O[C@H](Cc1ccc(O)c(O)c1)C(=O)O` [rosmarinic acid], the concentration giving a half-maximal response (EC50) at Aβ42 aggregation [2] was 60 µM.
